From patent publication US20250051321A1, “TRICYCLIC DERIVATIVE AND PREPARATION METHOD THEREFOR AND APPLICATION THEREOF” (SHANGHAI JEMINCARE PHARMACEUTICAL CO., LTD., priority 2021, published 2025) come the findings set out here.

Broadly, the IC50 is the midpoint of a concentration-inhibition curve.

The first experiment deals with ATX (Homo sapiens (Human), UniProt Q13822). The experiment in a line: ATX enzyme inhibition assay (Amplex UltraRed/choline oxidase/HRP, 16:0 Lyso PC substrate). Format: biochemical. The settings on record: assay buffer pH 7.5; read-out: IC50 (nM) pH 7.5. On the procedure: All compounds were prepared as a 10 mM DMSO stock solution.
Solutions at pH 8.5 and pH 7.5 were prepared respectively with the following formulations:
All compounds, including the positive control compound, were diluted 5-fold from 10 mM to 2 mM with DMSO in the first step. The mixture was then diluted to 100 μM with 1× assay buffer.
3. Separate Detection of Compounds with 1× Assay Buffer at Two pH Values:
a) 5 μL of 10× compound diluent was added to a 384-well plate (Greiner 781209) using a motorized pipette (see the “experimental preparation” step). 5 μL of 1× assay buffer containing 5% DMSO was added to both negative and positive control wells. The plate was centrifuged at 300 rpm for 1 minute at room temperature.
b) 2× ATX ([…]) was prepared with 1× assay buffer, and 25 μL of 2× ATX was added to the plate using a motorized pipette. 25 μL of 1× assay buffer was added to the negative control wells and 25 μL of 2× ATX was added to the positive control wells. The plate was centrifuged at 300 rpm for 1 minute at room temperature.
The plate was incubated at room temperature for 10 minutes.
c) 2.5× working solution containing Amplex UltraRed reagent (125 μM), HRP (2.5 U/mL), choline oxidase (1.25 U/mL), and 16:0 Lyso PC (75 μM) was prepared with 1× assay buffer. 20 μL of 2.5× working solution was added to all reaction wells using a motorized pipette. The plate was centrifuged at 300 rpm for 1 minute at room temperature.
d) The plate was detected by SpectraMax with the following procedures: fluorescence mode; excitation at 550 nm; emission at 590 nm; kinetics; read once every 2 minutes; read continuously for 60 minutes.
The calculation formula of % inhibition (i.e., % inhibition rate) was as follows: […]
V0: X-axis is taken as 0 to 30 minutes, Y-axis is taken as fluorescence readings, and the slope corresponding to the straight line fitted by the software GraphPad Prism 8 is the initial response rate.
V0max: Average V0 of the positive control wells in the plate.
V0min: Average V0 of the negative control wells in the plate.
The IC50 of the compounds was calculated from a nonlinear regression line (dose-initial response rate) fitted by % inhibition and log value of compound concentration using the software GrahPad Prism 8.
As to `CN(c1nc(-c2ccc(F)cc2)c(C#N)s1)c1c2c(nc3c(F)cc(N4CCN(CC(=O)N5CC(F)(F)C5)CC4)cc13)CCC2` [Example A15], the IC50 is 656 nM.

For the compound `CN(c1nc(-c2ccc(F)cc2)c(C#N)s1)c1c2c(nc3c(F)cc(N4CC5(CN(C(=O)[C@@H]6CCOC6)C5)C4)cc13)CCO2` [Example C11], the IC50 was found to be 132 nM.

Still in this experiment, the particulars now being: assay buffer pH 8.5; read-out: IC50 (nM) pH 8.5.
With `CN(c1nc(-c2ccc(F)cc2)c(C#N)s1)c1c2c(nc3c(F)cc(N4CC5(CN(C(=O)C6(O)CCOCC6)C5)C4)cc13)[C@H](O)CC2` (single isomer, unassigned) [Example E15-b], the half-maximal inhibitory concentration (IC50) came out at 18.5 nM.

As for `CN(c1nc(-c2ccc(F)cc2)c(C#N)s1)c1c2c(nc3c(F)cc(N4CC5(CN(C(=O)C(C)(C)O)C5)C4)cc13)[C@H](O)CC2` (single isomer, unassigned) [Example E16-b], the IC50 amounted to 23 nM.

Turning to `CN(c1nc(-c2ccc(F)cc2)c(C#N)s1)c1c2c(nc3c(F)cc(N4CC5(CN(C(=O)N6CCCC6)C5)C4)cc13)[C@@H](O)CC2` (single isomer, unassigned) [Example E17-a], the IC50 amounted to 22.4 nM.

On to `CN(c1nc(-c2ccc(F)cc2)c(C#N)s1)c1c2c(nc3c(F)cc(N4CC5(CN(C(=O)N6CCCC6)C5)C4)cc13)[C@H](O)CC2` (single isomer, unassigned) [Example E17-b], for which the IC50 was 21.5 nM.

Turning to `CN1CC[C@H](C(=O)N2CC3(C2)CN(c2cc(F)c4nc5c(c(N(C)c6nc(-c7ccc(F)cc7)c(C#N)s6)c4c2)CC[C@@H]5O)C3)C1` (single isomer, unassigned) [Example E18-a], the IC50 worked out at 23.4 nM.

For the compound `CN1CC[C@H](C(=O)N2CC3(C2)CN(c2cc(F)c4nc5c(c(N(C)c6nc(-c7ccc(F)cc7)c(C#N)s6)c4c2)CC[C@H]5O)C3)C1` (single isomer, unassigned) [Example E18-b], the IC50 is 37.1 nM.

Consider `CN(c1nc(-c2ccc(F)cc2)c(C#N)s1)c1c2c(nc3c(F)cc(N4CC5(CN(C(=O)[C@@H]6COC[C@H]6O)C5)C4)cc13)[C@@H](O)CC2` (single isomer, unassigned) [Example E20-a], for which the IC50 is 18.1 nM.

For `CN(c1nc(-c2ccc(F)cc2)c(C#N)s1)c1c2c(nc3c(F)cc(N4CC5(CN(C(=O)[C@@H]6COC[C@H]6O)C5)C4)cc13)[C@H](O)CC2` (single isomer, unassigned) [Example E20-b], the IC50 worked out at 17 nM.

For `CN(c1nc(-c2ccc(F)cc2)c(C#N)s1)c1c2c(nc3c(F)cc(N4CC5(CN(C(=O)[C@H]6COC[C@@H]6O)C5)C4)cc13)[C@@H](O)CC2` (single isomer, unassigned) [Example E20-c], the IC50 stood at 25.7 nM.

For `CN(c1nc(-c2ccc(F)cc2)c(C#N)s1)c1c2c(nc3c(F)cc(N4CC5(CN(C(=O)[C@H]6COC[C@@H]6O)C5)C4)cc13)[C@H](O)CC2` (single isomer, unassigned) [Example E20-d], the IC50 came to 29.2 nM.

For `CN(c1nc(-c2ccc(F)cc2)c(C#N)s1)c1c2c(nc3c(F)cc(N4CCN(CC(=O)N5CC(O)C5)CC4)cc13)C(O)CC2` (stereo not drawn) [E1-1], the IC50 is 21.3 nM.

Turning to `N#Cc1cc(Br)cc(F)c1NC1=CCCC1=O` [E1-2], the IC50 stood at 18.2 nM.

`CN(c1nc(-c2ccc(F)cc2)c(C#N)s1)c1c2c(nc3c(F)cc(N4CCN(CC(=O)N5CC(F)(F)C5)CC4)cc13)CCC2` [Example A15]: the IC50 is 134 nM.

Turning to `CN(c1nc(-c2ccc(F)cc2)c(C#N)s1)c1c2c(nc3c(F)cc(N4CC5(CN(CC(=O)N6CC(O)C6)C5)C4)cc13)CCO2` [Example A23], the IC50 worked out at 75.3 nM.

As to `CN(c1nc(-c2ccc(F)cc2)c(C#N)s1)c1c2c(nc3c(F)cc(N4CCN(CC(=O)N5CC(O)C5)CC4)cc13)CCCC2` [Example A27], the IC50 was found to be 111 nM.

As for `CN(c1nc(-c2ccc(F)cc2)c(C#N)s1)c1c2c(nc3c(F)cc(N4CC5(CN(CC(=O)N6CC(CO)C6)C5)C4)cc13)COC2` [Example A28], the IC50 turned out to be 226 nM.

With `CN(c1nc(-c2ccc(F)cc2)c(C#N)s1)c1c2c(nc3c(F)cc(N4CC5(CN(CC(=O)N6CC(CO)C6)C5)C4)cc13)CCO2` [Example A29], the IC50 is 111 nM.

Take `C[C@H]1CN(CC(=O)N2CC(O)C2)CCN1c1cc(F)c2nc3c(c(N(C)c4nc(-c5ccc(F)cc5)c(C#N)s4)c2c1)COC3` [Example A30]: the half-inhibitory concentration (IC50) was determined as 22.1 nM.

`C[C@@H]1CN(CC(=O)N2CC(O)C2)CCN1c1cc(F)c2nc3c(c(N(C)c4nc(-c5ccc(F)cc5)c(C#N)s4)c2c1)COC3` [Example A31]: the IC50 was found to be 26.9 nM.

On to `C[C@@H]1CN(c2cc(F)c3nc4c(c(N(C)c5nc(-c6ccc(F)cc6)c(C#N)s5)c3c2)COC4)CCN1CC(=O)N1CC(O)C1` [Example A32], for which the IC50 came to 94.3 nM.

`C[C@H]1CN(c2cc(F)c3nc4c(c(N(C)c5nc(-c6ccc(F)cc6)c(C#N)s5)c3c2)COC4)CCN1CC(=O)N1CC(O)C1` [Example A33]: the IC50 is 44.6 nM.

On to `CN(c1nc(-c2ccc(F)cc2)c(C#N)s1)c1c2c(nc3c(F)cc(N4CC5(CN(CC(=O)N6CC(C)(O)C6)C5)C4)cc13)COC2` [Example A34], for which the IC50 turned out to be 446 nM.

In the case of `CN(c1nc(-c2ccc(F)cc2)c(C#N)s1)c1c2c(nc3c(F)cc(N4CCN(CC(=O)N5CC(C)(O)C5)CC4)cc13)COC2` [Example A35], the IC50 amounted to 66.8 nM.

`CN(c1nc(-c2ccc(F)cc2)c(C#N)s1)c1c2c(nc3c(F)cc(N4CC5(CN(C(=O)[C@@H]6CCOC6)C5)C4)cc13)CCO2` [Example C11]: the IC50 stood at 61.9 nM.

Regarding `CN(c1nc(-c2ccc(F)cc2)c(C#N)s1)c1c2c(nc3c(F)cc(N4CC5(CN(C(=O)C(C)(C)O)C5)C4)cc13)COC2` [Example C21], the IC50 stood at 49.1 nM.

As for `CN(c1nc(-c2ccc(F)cc2)c(C#N)s1)c1c2c(nc3c(F)cc(N4CC5(CN(C(=O)C6(O)CC6)C5)C4)cc13)COC2` [Example C22], the IC50 was found to be 73 nM.

`CN(c1nc(-c2ccc(F)cc2)c(C#N)s1)c1c2c(nc3c(F)cc(N4CCN(CC(=O)N5CC(O)C5)CC4)cc13)C(=O)CC2` [Example E2]: the IC50 is 3.46 nM.

With `CN(c1nc(-c2ccc(F)cc2)c(C#N)s1)c1c2c(nc3c(F)cc(N4CC5(CN(C(=O)[C@H]6CCOC6)C5)C4)cc13)C(=O)CC2` [Example E3], the IC50 worked out at 30.7 nM.

Turning to `CN(c1nc(-c2ccc(F)cc2)c(C#N)s1)c1c2c(nc3c(F)cc(N4CC5(CN(C(=O)[C@@H]6CCOC6)C5)C4)cc13)C(=O)CC2` [Example E4], the 50% inhibitory concentration (IC50) is 24.5 nM.

For the compound `CN(c1nc(-c2ccc(F)cc2)c(C#N)s1)c1c2c(nc3c(F)cc(N4CC5(CN(C(=O)C6CCOC6)C5)C4)cc13)C(O)CC2` (stereo not drawn) [Example E5], the IC50 was found to be 21.8 nM.

As for `CN(c1nc(-c2ccc(F)cc2)c(C#N)s1)c1c2c(nc3c(F)cc(N4CC5(CN(CC(=O)N6CCCC6)C5)C4)cc13)C(O)CC2` (stereo not drawn) [Example E11], the IC50 was 35.7 nM.

For the compound `CN(c1nc(-c2ccc(F)cc2)c(C#N)s1)c1c2c(nc3c(F)cc(N4CC5(CN(CC(=O)N6CC[C@H](O)C6)C5)C4)cc13)C(O)CC2` (stereo partly drawn) [Example E12], the IC50 turned out to be 97.6 nM.

In the case of `CN(c1nc(-c2ccc(F)cc2)c(C#N)s1)c1c2c(nc3c(F)cc(N4CC5(CN(C(=O)[C@@H]6CCOC6)C5)C4)cc13)C(O)CC2` (stereo partly drawn) [Example E13], the IC50 is 23.5 nM.

As for `CN(c1nc(-c2ccc(F)cc2)c(C#N)s1)c1c2c(nc3c(F)cc(N4CC5(CN(C(=O)C6(O)CCOC6)C5)C4)cc13)C(O)CC2` (stereo not drawn) [Example E19], the IC50 was determined as 20.4 nM.

`CN(c1nc(-c2ccc(F)cc2)c(C#N)s1)c1c2c(nc3c(F)cc(N4CC5(CN(C(=O)C6COCC6O)C5)C4)cc13)C(O)CC2` (stereo not drawn) [Example E20]: the IC50 came to 23.5 nM.

As to `CN(c1nc(-c2ccc(F)cc2)c(C#N)s1)c1c2c(nc3c(F)cc(N4CCN(CC(=O)NO)CC4)cc13)CC2` [Example F1], the concentration for half-maximal inhibition (IC50) worked out at 44.9 nM.

With `CN(c1nc(-c2ccc(F)cc2)c(C#N)s1)c1c2c(nc3c(F)cc(N4CCN(CC(=O)N5CC6(CC(O)C6)C5)CC4)cc13)CC2` [Example F2], the IC50 was 65.2 nM.

For the compound `CN(c1nc(-c2ccc(F)cc2)c(C#N)s1)c1c2c(nc3c(F)cc(N4CCN(CC(=O)N5CC6(CCOCC6)C5)CC4)cc13)CC2` [Example F3], the IC50 was 60.6 nM.

`CN(c1nc(-c2ccc(F)cc2)c(C#N)s1)c1c2c(nc3c(F)cc(N4CCN(CC(=O)N5CC6(CCS(=O)(=O)CC6)C5)CC4)cc13)CC2` [Example F4]: the IC50 is 19.6 nM.

Turning to `CN(c1nc(-c2ccc(F)cc2)c(C#N)s1)c1c2c(nc3c(F)cc(N4CCN(CC(=O)N5CC6(CCC(O)CC6)C5)CC4)cc13)CC2` [Example F5], the concentration for half-maximal inhibition (IC50) stood at 19.9 nM.
